Experimental data from US20090131356A1, “miR-15, miR-26, miR-31, miR-145, miR-147, miR-188, miR-215, miR-216, miR-331, mmu-miR-292-3P REGULATED GENES AND PATHWAYS AS TARGETS FOR THERAPEUTIC INTERVENTION” (ASURAGEN, INC., priority 2006, published 2009).

Legend:
A549 and H1299 cells = assay: Dose-dependent Alamar Blue proliferation assay (0 pM to 3 nM); assay type: cell-based, human; details: for % proliferation: normalized to mock-transfected cells (0 pM miRNA)
Description: The inventors determined sensitivity and specificity of hsa-miR-147 by administering hsa-miR-147 or negative control miRNA at increasing concentrations, ranging from 0 pM to 3 nM. Delivery of miRNA and cellular proliferation of A549 and H1299 cells was assessed as described above. Alamar Blue values were normalized to values obtained from mock-transfected cells (0 pM=100% proliferation). As shown in FIG. 3 and Table 8, increasing amounts of negative control miRNA had no effect on cellular proliferation of A549 or H1299 cells. In contrast, the growth-inhibitory phenotype of hsa-miR-147 is dose-dependent and correlates with increasing amounts of hsa-miR-147. Hsa-miR-147 induces a therapeutic response at concentrations as low as 300 pM.

[1] = tested on: metastatic lung cancer cells; assay: Alamar Blue proliferation assay, average over metastatic luciferase-expressing lung cancer cell lines; assay type: cell-based, human; details: average of 5 metastatic luc lung cancer cell lines; vs negative control miRNA (=100%); 72 hours
From the text: The inventors assessed the therapeutic effect of hsa-miR-147 for lung cancer by using 12 individual lung cancer cell lines. To measure cellular proliferation of lung cancer cells, the following parental non-small cell lung cancer (NSCLC) cells were used: cells derived from lung adenocarcinoma (A549, H1299, H522, H838, Calu-3, HCC827, HCC2935), cells derived from lung squamous cell carcinoma (H520, H226), cells derived from lung adenosquamous cell carcinoma (H596), cells derived from lung bronchioalveolar carcinoma (H1650), and cells derived from lung large cell carcinoma (H460). In addition to these parental cell lines, highly metastatic NSCLC cells were used that stably express the firefly luciferase gene: A549-luc, H460-luc, HCC827-luc, H1650-luc, H441-luc. Unlike the parental cell lines, these metastatic cells readily migrate to distant sites of the test animal and form metastases upon subcutaneous, orthotopic, or intravenous injection. Synthetic hsa-miR-147 or negative control miRNA was delivered via lipid-based transfection into A549, H1299, H522, H838, Calu-3, HCC827, HCC2935, H520, H596, H1650, H460, A549-luc, H460-luc, HCC827-luc, H1650-luc, H441-luc cells and via electroporation into H226 cells. […]

[2] = tested on: PC3 human prostate cancer cells; assay: Long-term growth curve with repeated electroporation, PC3; assay type: cell-based; details: 1.6 μM electroporated, repeated on days 7 and 14; by day 21
Description: To evaluate the therapeutic activity of hsa-miR-147 over an extended period of time, the inventors conducted growth curve experiments in the presence of miRNA for up to 21 days. Since in vitro transfections of naked interfering RNAs, such as synthetic miRNA, are transient by nature and compromised by the dilution of the oligo during ongoing cell divisions, miRNA was administered at multiple time points (Bartlett et al., 2006; Bartlett et al., 2007). To accommodate miRNA delivery into a large quantity of cells, the inventors employed the electroporation method to delivery hsa-miR-147 or negative control miRNA into PC3 and Du145 human prostate cancer cells. Briefly, 1×10^6 PC3 cells and 0.5×10^6 Du145 cells were electroporated with 1.6 μM hsa-miR-147 or negative control using the BioRad Gene Pulser Xcell™ instrument (BioRad Laboratories Inc., Hercules, Calif., USA), seeded and propagated in regular growth medium. Experiments with PC3 and Du145 cells were carried out in triplicates. When the control cells reached confluence (days 7 and 14), cells were harvested, counted and electroporated again with the respective miRNAs. […] The population doubling was calculated from these electroporation events using the formula PD=ln(Nf/N0)/ln2 and adjusting for the fact that approximately 72% of newly seeded cells adhere to the plate. […]

hsa-miR-147: Synthetic pre-miR-147 (Ambion AM17100; Dharmacon in vivo); mature sequence GUGUGUGGAAAUGCUUCUGC, MIMAT0000251, SEQ ID NO:114 (synthetic pre-miR (Ambion/Dharmacon), chemistry not given here; listed as Homo sapiens)
% proliferation (A549 and H1299 cells; A549 Cells, 3 pM): 104.77% | % proliferation (A549 and H1299 cells; A549 Cells, 30 pM): 99.22% | % proliferation (A549 and H1299 cells; A549 Cells, 300 pM): 88.24% | % proliferation (A549 and H1299 cells; A549 Cells, 3,000 pM): 75.78% | % proliferation (A549 and H1299 cells; H1299 Cells, 3 pM): 93.08% | % proliferation (A549 and H1299 cells; H1299 Cells, 30 pM): 88.20% | % proliferation (A549 and H1299 cells; H1299 Cells, 300 pM): 81.82% | % proliferation (A549 and H1299 cells; H1299 Cells, 3,000 pM): 69.70% | lowest concentration inducing a therapeutic response (A549 and H1299 cells; concentrations 0 pM to 3 nM, normalized to mock-transfected cells): 300 pM | inhibition of cell growth, on average [1]: 42% | fate of PC3 cells in long-term growth curve [2]: eliminated
